Source: US20260364184A1, “COMPOUND BASED ON OXOISOINDOLINYL-SUBSTITUTED TETRAHYDROPYRIMIDINE-DIONE AND USE THEREOF” (GLUETACS THERAPEUTICS (SHANGHAI) CO., LTD., priority 2023, published 2026)
Like-named read-outs stand apart in the source and are kept apart here.

Experiments:
[1] = test system: Human diffuse large B-cell lymphoma cell line (TMD8); experiment: Inhibition of TMD8 cell proliferation (CellTiter luminescent viability); type: cell-based; settings: Homo sapiens, TMD8, 96 h, Table IF1, AR inhibitor-based; for inhibition at 0.01 µM: TMD8, 10 nM, read-out: Inhibition Rate at 10 nM (%); for inhibition at 0.5 µM: TMD8, 500 nM, read-out: Inhibition Rate at 500 nM (%)
Experimental: (§1) The tumor cells used herein were cultured in a cell culture medium listed in table 3 at 37 °C in an incubator with 5% CO2. Prior to experimentation, all cell lines used were correctly identified by STR profiling, and tested negative for mycoplasma contamination using a mycoplasma detection kit through routine screenings.
(§2) The IC50 values of the compounds of the present disclosure (including the compounds in Table 1, Table 2, and Examples 1-468) were determined using the CellTiter-Meiluncell Luminescent Cell Viability Assay Kit from Dalian Meilun Biotech Co., Ltd. The detailed procedure is as follows: Tumor cells were seeded in 96-well cell culture plates at the densities specified in Table 4. On the following day, the test compounds of the present disclosure were subjected to serial dilution. The dilution can be performed according to one of the following two methods: • (1) The first dilution method: The test compounds of the present disclosure (including the compounds in Table 1, Table 2, and Examples 1-468) were subjected to 5-fold serial dilutions starting from a highest concentration of 2000 μM, resulting in a total of 9 concentrations from high to low (2000, 400, 80, 16, 3.2, 0.64, 0.128, 0.0256, 0.00512 μM). Subsequently, 0.5 μL of the test compound dilution was transferred into the 96-well plate containing the cells, with each well containing 100 μL of cell culture medium. […] Into the 96-well plate, the diluted test compounds and corresponding detection reagents were added, resulting in final test compound concentrations of 500 nM and 10 nM, respectively. The experimental procedure is described below using the diluted 2 μM test compound as an example.
(§3) 0.5 μL of the aforementioned diluted compound of the present disclosure (including the compounds in Table 1, Table 2, and Examples 1-468) was added to the seeded cells in 100 μL of medium, yielding a final test compound concentration of 10 nM. After the cells were treated with the compounds of the present disclosure for a specified period, the cell viability assay reagent was added to the culture medium according to the kit's instructions to determine cell viability. […] All controls were treated using the same procedure as the compounds of the present disclosure. The growth inhibition curves for the compounds of the present disclosure were plotted using Prism GraphPad software, and the IC50 values were calculated therefrom.

[2] = test system: Human T lymphocytic leukemia cell line (Jurkat); experiment: Inhibition of Jurkat cell proliferation (CellTiter luminescent viability); type: cell-based; settings: Homo sapiens, Table IF3, AR inhibitor-based, 96 hours; for inhibition at 0.01 µM: 10 nM, read-out: Inhibition Rate at 10 nM (%); for inhibition at 0.5 µM: 500 nM, read-out: Inhibition Rate at 500 nM (%)
Experimental: as §1, §2, §3

[3] = test system: Human acute lymphocytic leukemia T lymphocytes cell line (CCRF-CEM); experiment: Inhibition of CCRF-CEM cell proliferation (CellTiter luminescent viability); type: cell-based; settings: Homo sapiens, 96 h, Table IF2, AR inhibitor-based; for inhibition at 0.01 µM: 10 nM, read-out: Inhibition Rate at 10 nM (%); for inhibition at 0.5 µM: 500 nM, read-out: Inhibition Rate at 500 nM (%)
Experimental: as §1, §2, §3

[4] = Inhibition of RPMI-8226 cell proliferation (CellTiter luminescent viability); type: cell-based; settings: Homo sapiens, read-out: Inhibition Rate at 10 nM (%)
Experimental: as §1, §2, §3

[5] = test system: Human B-Cell Lymphoma Cells (RPMI-8226); experiment: as above; type: cell-based; settings: RPMI-8226, 500 nM, read-out: Inhibition Rate at 500 nM (%)
Experimental: as §1, §2, §3

[6] = target: T1, human Cereblon WT GST-tagged protein (CRBN) (Homo sapiens, UniProt Q96SW2); experiment: CRBN binding by HTRF (Cereblon binding kit)
T1 construct: purchased CISBIO 64BDCRBNPEH
Experimental: The CEREBLON BINDING kits (specification: 10,000 tests; product number: Catalog #64BDCRBNPEH; CISBIO company) was used to determine the CRBN binding ability of the compounds to be tested through a HTRF method (homogeneous time-resolved fluorescence). The specific methods are as follows: • 1. According to the instructions of the CEREBLON BINDING KITS, serial dilutions were performed for the test compounds of the present disclosure (including the compounds in Table 1, Table 2, and Examples 1-468) and for lenalidomide. Specifically, diluent #9 (1×) solution was used as the diluent, and multiple concentration gradients were set. The dilution operation can be performed according to one of the following two methods: • (1) The first dilution method: The test compounds of the present disclosure (including the compounds in Table 1, Table 2, and Examples 1-468) were subjected to 5-fold serial dilutions starting from a highest concentration of 40 μM, resulting in a total of 7 concentrations from high to low (40, 8, 1.6, 0.32, 0.064, 0.0128, 0.00256 μM). Subsequently, the diluted test compounds and corresponding detection reagents were added to each well of a 96-well plate, resulting in final test compound concentrations of 10, 2, 0.4, 0.08, 0.016, 0.0032, and 0.00064 μM, respectively. • (2) As an alternative, a second dilution method can be used: The test compounds of the present disclosure (including the compounds in Table 1, Table 2, and Examples 1-468) were subjected to 4-fold gradient dilutions starting from a highest concentration of 8 μM, resulting in 2 concentrations (8 μM, 2 μM). Into the 96-well plate, the diluted test compounds and corresponding detection reagents were added, resulting in final test compound concentrations of 2 μM and 0.5 μM, respectively. The experimental procedure is described below using the diluted 8 μM test compound and lenalidomide solutions as examples. • 2. 2.5 μL of the above 8 μM of the tested compounds and lenalidomide solution, as well as the same volume of diluent #9 (1×) solution (solvent control group, Std0) were added to each well of a 96-well plate, respectively. Then, 2.5 μL of human Cereblon WT GST-tagged protein solution was added to each well. Finally, 5 μL of the thoroughly mixed Thalidomide-Re reagent and GST Eu antibody working solution were added to each of the aforementioned wells. The final concentration of the tested compounds and lenalidomide in each well was 2 μM. • 3. The blank control wells were sequentially added with 2.5 μL of diluent #9 (1×) solution, 2.5 μL of PROTAC binding buffer, and 5 μL of thoroughly mixed Thalidomide-Re reagent and GST Eu antibody working solution. • 4. After sealing and incubating the solutions in the aforementioned wells at room temperature for 3 hours, the absorbance values at emission wavelengths of 620 nm and 665 nm were detected by the HTRF method using a Spark microplate reader (V3.1 SP1).
The corresponding CRBN binding inhibition rate was calculated using the following method:
Rcompound=OD 665 nmcompound/OD 620 nmcompound−OD 665 nmcontrol/OD 620 nmcontrol
RStd0=OD 665 nmStd0/OD 620 nmStd0−OD 665 nmcontrol/OD 620 nmcontrol inhibition rate (%)=(1−Rcompound/RStd0)*100
Note: OD 665 nmcompound is the absorbance value of each well of the compounds to be tested of the present disclosure at an emission wavelength of 665 nm. OD 620 nmcompound is the absorbance value of each well of the compounds to be tested of the present disclosure at an emission wavelength of 620 nm. OD 665 nmcontrol is the absorbance value of the blank control well at an emission wavelength of 665 nm. OD 620 nmcontrol is the absorbance value of the blank control well at an emission wavelength of 620 nm. OD 665 nmStd0 is the absorbance value of the solvent control well at an emission wavelength of 665 nm. OD 620 nmStd0 is the absorbance value of the solvent control well at an emission wavelength of 620 nm.

[7] = test system: Human large cell immunoblastic lymphoma cell line SR; experiment: Inhibition of SR cell proliferation (CellTiter luminescent viability); type: cell-based; settings: Table IB1, ALK inhibitor-based, 96 hours, read-out: Inhibitory activity (IC50, nM) on tumor cell proliferation, SR
Experimental: as §1, §2, §3

T1 sequence (Q96SW2 whole entry): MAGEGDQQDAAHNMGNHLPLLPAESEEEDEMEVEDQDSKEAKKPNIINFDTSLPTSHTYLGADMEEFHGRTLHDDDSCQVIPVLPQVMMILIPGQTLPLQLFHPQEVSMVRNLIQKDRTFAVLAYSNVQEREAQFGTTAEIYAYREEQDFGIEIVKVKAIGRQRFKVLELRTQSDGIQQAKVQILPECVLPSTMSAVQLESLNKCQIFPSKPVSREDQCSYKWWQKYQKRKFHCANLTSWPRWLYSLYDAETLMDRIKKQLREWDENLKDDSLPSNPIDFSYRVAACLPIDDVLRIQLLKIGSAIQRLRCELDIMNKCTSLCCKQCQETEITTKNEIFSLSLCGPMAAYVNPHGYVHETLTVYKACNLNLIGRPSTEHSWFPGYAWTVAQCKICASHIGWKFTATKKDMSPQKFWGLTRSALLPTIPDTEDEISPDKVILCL

Structure (SMILES)	inhibition at 0.01 µM [1]	inhibition at 0.5 µM [1]	inhibition at 0.01 µM [2]	inhibition at 0.5 µM [2]	inhibition at 0.01 µM [3]	inhibition at 0.5 µM [3]	inhibition at 0.01 µM ([4]; Table IA4, IRAK4 inhibitor-based, RPMI-8226, 10 nM, 96 hours)	inhibition at 0.5 µM ([5]; Table IA4, IRAK4 inhibitor-based, 96 hours)	inhibition at 0.01 µM ([4]; RPMI-8226, 10 nM)	inhibition at 0.5 µM [5]	Inhibition Rate at 0.5 μM (%) ([6]; 0.5 μM)	Inhibition Rate at 2 μM (%) ([6]; 2 μM)	IC50 [7]
CNC(=O)c1ccc(N2C(=S)N(c3ccc(C#N)c(C(F)(F)F)c3)C(=O)C2(C)C)cc1F [Enzalutamide, reference compound]	10 to 15%	10 to 15%	5 to 10%	5 to 10%	0 to 5%	0 to 5%							
N#Cc1ccc(O[C@H]2CC[C@H](NC(=O)c3ccc(N4CCC(CN5C[C@H]6C[C@@H]5CN6c5ccc6c(c5)C(=O)N(N5CCC(=O)NC5=O)C6=O)CC4)nn3)CC2)cc1Cl [GT-05227, N-((1r,4r)-4-(3-chloro-4-cyanophenoxy)cyclohexyl)-6-(4-(((1R,4R)-5-(2-(2,4-dioxotetrahydropyrimidin-1(2H)-yl)-1,3-dioxoisoindolin-5-yl)-2,5-diazabicyclo[2.2.1]heptan-2-yl)methyl)piperidin-1-yl)pyridazine-3-carboxamide]	15 to 20%	25 to 30%	5 to 10%	20 to 30%	20 to 30%	20 to 30%							
N#Cc1ccc(O[C@H]2CC[C@H](NC(=O)c3ccc(N4CCC(CN5CCN(c6cccc7c6C(=O)N(N6CCC(=O)NC6=O)C7=O)CC5)CC4)nn3)CC2)cc1Cl [GT-05230, N-((1r,4r)-4-(3-chloro-4-cyanophenoxy)cyclohexyl)-6-(4-((4-(2-(2,4-dioxotetrahydropyrimidin-1(2H)-yl)-1,3-dioxoisoindolin-4-yl)piperazin-1-yl)methyl)piperidin-1-yl)pyridazine-3-carboxamide]	5 to 10%	20 to 25%	10 to 15%	20 to 30%	10 to 15%	20 to 30%							
N#Cc1ccc(O[C@H]2CC[C@H](NC(=O)c3ccc(N4CCC(CN5CC6CC(C5)N6c5ccc6c(c5)C(=O)N(N5CCC(=O)NC5=O)C6=O)CC4)nn3)CC2)cc1Cl [GT-05231, N-((1r,4r)-4-(3-chloro-4-cyanophenoxy)cyclohexyl)-6-(4-((6-(2-(2,4-dioxotetrahydropyrimidin-1(2H)-yl)-1,3-dioxoisoindolin-5-yl)-3,6-diazabicyclo[3.1.1]heptan-3-yl)methyl)piperidin-1-yl)pyridazine-3-carboxamide]	5 to 10%	40 to 60%	10 to 15%	30 to 40%	5 to 10%	30 to 40%							
N#Cc1ccc(O[C@H]2CC[C@H](NC(=O)c3ccc(N4CCC(CN5CCN(C6CCN(c7ccc8c(c7)C(=O)N(N7CCC(=O)NC7=O)C8=O)CC6(F)F)CC5)CC4)nn3)CC2)cc1Cl (stereo partly shown) [GT-05235, N-((1r,4r)-4-(3-chloro-4-cyanophenoxy)cyclohexyl)-6-(4-((4-(1-(2-(2,4-dioxotetrahydropyrimidin-1(2H)-yl)-1,3-dioxoisoindolin-5-yl)-3,3-difluoropiperidin-4-yl)piperazin-1-yl)methyl)piperidin-1-yl)pyridazine-3-carboxamide]	5 to 10%	35 to 40%	5 to 10%	30 to 40%	10 to 15%	30 to 40%							
CC(C)(O)c1cc2nn(C3CCN(Cc4ccc5c(c4)C(=O)N(N4CCC(=O)NC4=O)C5=O)CC3)cc2cc1NC(=O)c1cccc(C(F)(F)F)n1 [GT-05752, N-(2-(1-((2-(2,4-dioxotetrahydropyrimidin-1(2H)-yl)-1,3-dioxoisoindolin-5-yl)methyl)piperidin-4-yl)-6-(2-hydroxypropan-2-yl)-2H-indazol-5-yl)-6-(trifluoromethyl) picolinamide]							15 to 20%	25 to 30%					
N#CC1(CNc2nc(-c3cc(NC4CCN(CC5CCN(c6cccc7c6C(=O)N(N6CCC(=O)NC6=O)C7=O)CC5)CC4)ncc3Cl)cs2)CCOCC1 [GT-08345, 4-(((4-(5-chloro-2-((1-((1-(2-(2,4-dioxotetrahydropyrimidin-1(2H)-yl)-1,3-dioxoisoindolin-4-yl)piperidin-4-yl)methyl)piperidin-4-yl)amino)pyridin-4-yl)thiazol-2-yl)amino)methyl)tetrahydro-2H-pyran-4-carbonitrile]									20 to 30%	5 to 10%			
COc1cc(N2CCC(N3CCN(C)CC3)CC2)ccc1Nc1ncc(Cl)c(Nc2ccccc2P(C)(C)=O)n1 [brigatinib, Brigatinib, reference compound]											a (0% < a ≤ 10%)	a1 (10% < a1 ≤ 20%)	1000 to 5000 nM
